Broadly, the IC50 is the point on the concentration scale where inhibition reaches its midpoint.

Each structure is given as a SMILES string. Where two headings read alike, the source gives them in different places.

The source of these data is patent US9783505B2, “Substituted diaminopyrimidyl compounds, compositions thereof, and methods of treatment therewith” (Signal Pharmaceuticals, LLC, priority 2013, dated 2017).

The target in this assay is T1, His-PKC-theta (Homo sapiens, UniProt Q04759).
T1 construct: His; purchased Invitrogen
T1 sequence (Q04759 whole entry): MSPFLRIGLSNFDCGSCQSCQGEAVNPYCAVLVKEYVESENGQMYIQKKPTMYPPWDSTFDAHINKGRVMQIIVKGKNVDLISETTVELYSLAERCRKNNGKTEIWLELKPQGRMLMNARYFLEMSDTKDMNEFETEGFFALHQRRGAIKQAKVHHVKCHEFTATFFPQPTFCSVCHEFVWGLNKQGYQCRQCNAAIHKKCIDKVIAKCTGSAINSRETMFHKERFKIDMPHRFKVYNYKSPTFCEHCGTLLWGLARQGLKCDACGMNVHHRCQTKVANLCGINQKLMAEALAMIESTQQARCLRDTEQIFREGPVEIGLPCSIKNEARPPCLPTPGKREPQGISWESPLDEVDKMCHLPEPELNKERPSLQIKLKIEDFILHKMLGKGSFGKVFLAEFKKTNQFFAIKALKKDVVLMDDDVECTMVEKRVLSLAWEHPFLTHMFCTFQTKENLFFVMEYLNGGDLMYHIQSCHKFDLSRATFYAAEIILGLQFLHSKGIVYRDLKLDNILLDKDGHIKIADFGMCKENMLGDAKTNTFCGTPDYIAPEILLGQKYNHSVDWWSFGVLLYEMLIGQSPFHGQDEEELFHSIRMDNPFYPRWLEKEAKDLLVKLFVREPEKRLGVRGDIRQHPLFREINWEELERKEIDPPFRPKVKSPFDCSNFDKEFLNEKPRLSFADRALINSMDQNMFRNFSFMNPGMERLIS
Description: PKC-theta Assay (384-well time resolved fluorescence, IMAP TR-FRET). It is filed as biochemical. The settings on record: read-out: Act. Level (IC50 in the PKC-theta Assay). In short, it runs like this:
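Fam-labeled S6-derived peptide (200 nM) and 10 μM ATP were reacted with 142 pM enzyme for 2 h at room temperature in HEPES pH 7.6 buffer with MgCl2, DTT, Triton X-100, BSA and EDTA. The reaction was stopped with IMAP progressive binding reagent plus Tb donor, incubated overnight, then TR-FRET read.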
(Time-resolved FRET reads energy transfer from a long-lived donor to a nearby acceptor.)

Turning to `CCOc1ncncc1CNc1ncc(C(F)(F)F)c(N[C@@H]2CC[C@H](O)C(C)(C)C2)n1` [Cmpd 25], the IC50 was < 100 nM. Turning to `CC1(C)C[C@H](Nc2nc(NCc3cncnc3C(F)(F)F)ncc2C(F)(F)F)CC[C@@H]1O` [Cmpd 30], the IC50 was < 100 nM. As to `Cc1ccc(CCNc2ncc(C#N)c(N[C@@H]3CC[C@H](O)C(C)(C)C3)n2)o1` [Cmpd 192], the concentration for half-maximal inhibition (IC50) fell in the range of 100 to 800 nM. With `Cc1ccc(CCNc2ncc(C#N)c(N[C@@H]3CC[C@H](O)C(C)(C)C3)n2)cc1C` [Cmpd 35], the IC50 (Table 2) is < 100 nM. With `C[C@@H](CNc1ncc(C#N)c(N[C@@H]2C[C@H](O)C2(C)C)n1)c1ccccc1` [Cmpd 41], the IC50 (Table 2) lay within 800 to 2000 nM. With `CC1(C)[C@@H](O)C[C@H]1Nc1nc(NCCc2ccc(OC3CCCC3)cc2)ncc1C#N` [Cmpd 118], for the setting “Table 2”, the half-maximal inhibitory concentration (IC50) was in the range of 800 to 2000 nM.

Consider `CC1(C)[C@@H](CO)C[C@H]1Nc1nc(NCCc2cccc(Cl)c2)ncc1C#N` [Cmpd 74], for which the IC50 (Table 2) was < 100 nM. Same read-out and setting: in the case of `CN(C)c1ccc(CCNc2ncc(C#N)c(N[C@@H]3CC[C@H](O)C(C)(C)C3)n2)cc1` [Cmpd 129] it was 100 to 800 nM; in that of `N#Cc1cnc(NCc2ccccc2OC(F)F)nc1N[C@H]1CC[C@@H](O)CC1` [Cmpd 4], 100 to 800 nM.

On to `CC1(C)[C@H](O)C[C@@H]1Nc1nc(NCc2c[n+]([O-])ccc2C(F)(F)F)ncc1C(F)(F)F` [Cmpd 136], for which the IC50 was 100 to 800 nM. Consider `CC1(C)C[C@H](Nc2nc(NCCc3cccs3)ncc2C#N)CC[C@@H]1O` [Cmpd 185], for which the IC50 lay in the range of 100 to 800 nM. Turning to `CC1(C)[C@@H](O)C[C@H]1Nc1nc(NCCc2ccc(F)cc2)ncc1C#N` [Cmpd 102], the IC50 (Table 2) lay in the range of 100 to 800 nM. Take `CC1(C)[C@@H](O)C[C@H]1Nc1nc(NCCc2ccccc2)ncc1C#N` [Cmpd 149]: the IC50 (Table 2) lay in the range of 100 to 800 nM. With `CN(C)c1ccc(CCNc2ncc(C#N)c(N[C@@H]3C[C@H](O)C3(C)C)n2)cc1` [Cmpd 133], the IC50 (Table 2) was 100 to 800 nM. Turning to `N#Cc1cnc(NCCc2cccc(Cl)c2)nc1N[C@H]1C[C@H](O)C1` [Cmpd 71], the IC50 (Table 2) is 2000 to 10000 nM. With `CC1(C)[C@@H](O)C[C@H]1Nc1nc(NCc2cncnc2C(F)(F)F)ncc1C#N` [Cmpd 61], the IC50 was < 100 nM. Turning to `CC1(C)[C@@H](O)C[C@H]1Nc1nc(NCCc2ccc(C#N)c(Br)c2)ncc1C#N` [Cmpd 145], the half-maximal inhibitory concentration (IC50) (Table 2) lay within 100 to 800 nM. Regarding `CC1(C)[C@@H](CO)C[C@@H]1Nc1nc(NCc2cnccc2C(F)(F)F)ncc1C(F)(F)F` [Cmpd 131], the IC50 fell in the range of 100 to 800 nM. Regarding `CCc1ncncc1CNc1ncc(C#N)c(N[C@H]2C[C@@H](O)C2(C)C)n1` [Cmpd 123], the IC50 was in the range of 100 to 800 nM. Consider `COc1cccc(CCNc2ncc(C#N)c(N[C@@H]3CC[C@H](O)C(C)(C)C3)n2)c1` [Cmpd 31], for which, for the setting “Table 2”, the IC50 is < 100 nM.

On to `CC1(C)C[C@H](Nc2nc(NCc3c[n+]([O-])ccc3C(F)(F)F)ncc2C#N)CC[C@@H]1O` [Cmpd 42], for which the IC50 was < 100 nM. Consider `CC1(C)C[C@H](Nc2nc(NCCc3ncon3)ncc2C#N)CC[C@@H]1O` [Cmpd 191], for which the IC50 lay in the range of 2000 to 10000 nM.

As for `COc1ccc2c(CCNc3ncc(C#N)c(N[C@H]4CC[C@@H](O)CC4)n3)c[nH]c2c1` [Cmpd 164], the IC50 was in the range of 800 to 2000 nM. Consider `CC1(C)C[C@H](Nc2nc(NCCc3ccc(F)cc3F)ncc2C#N)CC[C@@H]1O` [Cmpd 197], for which the IC50 (Table 2) was 100 to 800 nM. On to `COc1cccc2c(CCNc3ncc(C#N)c(NC4CCC(O)CC4)n3)c[nH]c12` (stereo not drawn) [Cmpd 166], for which the IC50 lay in the range of 800 to 2000 nM. With `CC1(C)[C@H](O)C[C@H]1Nc1nc(NCc2cncnc2OCCC(F)(F)F)ncc1C(F)(F)F` [Cmpd 125], the IC50 was < 100 nM.

In the case of `CC1(C)[C@@H](O)C[C@H]1Nc1nc(NCCc2cc(C(F)(F)F)cc(C(F)(F)F)c2)ncc1C#N` [Cmpd 125], the IC50 (Table 2) is 100 to 800 nM. Take `COc1cccc(F)c1CNc1ncc(C#N)c(N[C@H]2CC[C@@H](O)CC2)n1` [Cmpd 22]: the half-maximal inhibitory concentration (IC50) (Table 2) lay in the range of 2000 to 10000 nM.

On to `CC1(C)C[C@H](Nc2nc(NCCc3ccc(Oc4ccccc4)cc3)ncc2C#N)CC[C@@H]1O` [Cmpd 79], for which the IC50 (Table 2) lay within 100 to 800 nM.

For the molecule `CC1(C)C[C@H](Nc2nc(NCCc3ccc(OC4CCCC4)cc3)ncc2C#N)CC[C@@H]1O` [Cmpd 51], the IC50 (Table 2) lay within 100 to 800 nM. Consider `N#Cc1ccc2[nH]cc(CCNc3ncc(C#N)c(N[C@H]4CC[C@@H](O)CC4)n3)c2c1` [Cmpd 163], for which the IC50 lay within 2000 to 10000 nM. Consider `CC1(C)C[C@@H](Nc2nc(NCC(O)c3ccc(OC(F)F)cc3)ncc2C#N)CC[C@H]1O` (stereo partly drawn) [Cmpd 50], for which the IC50 (Table 2) is 2000 to 10000 nM. Turning to `Cc1ccc(Oc2ncncc2CNc2ncc(C(F)(F)F)c(N[C@H]3CC[C@@](C)(O)CC3)n2)cc1` [Cmpd 31], the IC50 was < 100 nM. Regarding `C[C@]1(O)CC[C@@H](Nc2nc(NCc3cncnc3-c3ccc(F)cc3)ncc2C#N)CC1` [Cmpd 86], the IC50 was < 100 nM. Take `N#Cc1cnc(NCc2cnccc2C(F)(F)F)nc1NC1CC(O)C1` (stereo not drawn) [Cmpd 90]: the IC50 was < 100 nM. In the case of `N#Cc1cnc(NCc2ccccc2Oc2ccccc2)nc1N[C@H]1CC[C@@H](O)CC1` [Cmpd 118], the IC50 was in the range of 100 to 800 nM. In the case of `CC1(C)[C@@H](O)C[C@H]1Nc1nc(NCCc2ccc(C#N)cc2)ncc1C#N` [Cmpd 38], the IC50 (Table 2) is 100 to 800 nM. Take `CC(C)c1ncncc1CNc1ncc(C#N)c(N[C@H]2C[C@@H](CO)C2(C)C)n1` [Cmpd 140]: the half-inhibitory concentration (IC50) is 100 to 800 nM.

As for `CC1(C)[C@@H](CO)C[C@H]1Nc1nc(NCc2c[n+]([O-])ccc2C(F)(F)F)ncc1C(F)(F)F` [Cmpd 48], the IC50 is < 100 nM. As to `CC1(C)C[C@H](Nc2nc(NCCc3ccccc3C(F)(F)F)ncc2C#N)CC[C@@H]1O` [Cmpd 97], the concentration for half-maximal inhibition (IC50) (Table 2) was in the range of 100 to 800 nM. With `Cc1ccn(CCNc2ncc(C#N)c(N[C@@H]3CC[C@H](O)C(C)(C)C3)n2)n1` [Cmpd 194], the IC50 lay in the range of 2000 to 10000 nM. Consider `Cc1nnnn1-c1ccccc1CNc1ncc(C(F)(F)F)c(N[C@H]2CC[C@@H](O)C(C)(C)C2)n1` [Cmpd 24], for which the IC50 (Table 2) lay within 2000 to 10000 nM. Consider `CC1(C)[C@H](O)C[C@@H]1Nc1nc(NCc2cncnc2-c2ccc(F)cc2)ncc1C#N` [Cmpd 133], for which the half-maximal inhibitory concentration (IC50) is 100 to 800 nM.

Turning to `CC(F)(F)COc1ncncc1CNc1ncc(C#N)c(N[C@H]2CC[C@@H](O)CC2)n1` [Cmpd 153], the IC50 is < 100 nM. For the molecule `Cc1nnnn1-c1ccccc1CNc1ncc(C#N)c(N[C@H]2CC[C@@H](O)C(C)(C)C2)n1` [Cmpd 25], for the setting “Table 2”, the IC50 was 2000 to 10000 nM. Same read-out and setting: in the case of `CC1(C)C[C@H](Nc2nc(NCCc3ccc(C#N)c(Cl)c3)ncc2C#N)CC[C@@H]1O` [Cmpd 139] it was 100 to 800 nM.

Consider `CC1(C)C[C@H](Nc2nc(NCCc3c[nH]c4ccc(OC(F)(F)F)cc34)ncc2C#N)CC[C@@H]1O` [Cmpd 171], for which the IC50 lay in the range of 2000 to 10000 nM.

In the case of `N#Cc1cnc(NCc2ccccc2Cl)nc1N[C@H]1CC[C@@H](O)CC1` [Cmpd 9], the IC50 (Table 2) lay within 100 to 800 nM.

For the molecule `N#Cc1ccc(CCNc2ncc(C#N)c(N[C@H]3CC[C@@H](O)CC3)n2)cc1` [Cmpd 73], where the note is “Table 2”, the IC50 fell in the range of 800 to 2000 nM. For `CC1(C)C[C@H](Nc2nc(NCCC3C(=O)Nc4ccccc43)ncc2C#N)CC[C@H]1O` (stereo partly drawn) [Cmpd 158], the half-inhibitory concentration (IC50) is 100 to 800 nM.

Consider `CC(C)c1ncncc1CNc1ncc(C#N)c(N[C@H]2C[C@@H](O)C2(C)C)n1` [Cmpd 119], for which the IC50 was in the range of 100 to 800 nM. As for `CC1(C)C[C@H](Nc2nc(NCCc3ccc(CN4CCCC4=O)cc3)ncc2C#N)CC[C@@H]1O` [Cmpd 52], the half-inhibitory concentration (IC50) (Table 2) lay in the range of 100 to 800 nM. In the case of `CC(C)c1ncncc1CNc1ncc(C(F)(F)F)c(N[C@@H]2C[C@H](O)C2(C)C)n1` [Cmpd 20], the IC50 is < 100 nM. `CC1(C)C[C@H](Nc2nc(NCCc3ccc(C(=O)O)cc3)ncc2C#N)CC[C@@H]1O` [Cmpd 153]: the IC50 (Table 2) lay in the range of 800 to 2000 nM. On to `N#Cc1cnc(NCCC2(O)C(=O)Nc3ccccc32)nc1N[C@H]1CC[C@@H](O)CC1` (stereo partly drawn) [Cmpd 162], for which the IC50 lay within 2000 to 10000 nM.

Take `CC1(C)C[C@H](Nc2nc(NCc3cncnc3OCCC(F)(F)F)ncc2C#N)CC[C@@H]1O` [Cmpd 6]: the IC50 is < 100 nM. As for `CC1(C)C[C@H](O)CC[C@H]1Nc1nc(NCCc2cccc(Cl)c2)ncc1C#N` [Cmpd 188], the IC50 (Table 2) was 100 to 800 nM. Take `N#Cc1cnc(NCCc2c[nH]c3ccc(F)cc23)nc1N[C@H]1CC[C@@H](C(N)=O)CC1` [Cmpd 178]: the IC50 was < 100 nM. Turning to `COC1CC(Nc2nc(NCc3cnccc3C(F)(F)F)ncc2C(F)(F)F)C1(C)C` (stereo not drawn) [Cmpd 103], the half-maximal inhibitory concentration (IC50) lay in the range of 100 to 800 nM. As to `N#Cc1cnc(NCCc2c[nH]c3cc(F)ccc23)nc1N[C@H]1CC[C@@H](O)CC1` [Cmpd 165], the IC50 lay in the range of 800 to 2000 nM.

Regarding `COc1ncncc1CNc1ncc(C(F)(F)F)c(N[C@@H]2C[C@H](O)C2(C)C)n1` [Cmpd 62], the IC50 was < 100 nM.

As to `CC1(C)[C@H](N)C[C@@H]1Nc1nc(NCCc2cccc(Cl)c2)ncc1C#N` [Cmpd 159], for the setting “Table 2”, the IC50 was < 100 nM. For `CC1(C)C[C@H](Nc2nc(NCCC3(O)C(=O)Nc4ccccc43)ncc2C#N)CC[C@@H]1O` (stereo partly drawn) [Cmpd 184], the IC50 was 100 to 800 nM.

For `O[C@H]1CC[C@@H](Nc2nc(NCc3cnccc3C(F)(F)F)ncc2C(F)(F)F)CC1` [Cmpd 69], the IC50 is < 100 nM.

In the case of `CC1(C)C[C@H](Nc2nc(NCCc3cc(Cl)ccc3C(F)(F)F)ncc2C#N)CC[C@@H]1O` [Cmpd 183], the half-maximal inhibitory concentration (IC50) (Table 2) fell in the range of 100 to 800 nM. Take `CN(C)C(=O)c1cccc(CCNc2ncc(C#N)c(N[C@@H]3CC[C@H](O)C(C)(C)C3)n2)c1` [Cmpd 61]: the IC50 (Table 2) was in the range of 2000 to 10000 nM.
